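The compound was tested at five concentrations on cells cultured in 96-well plates, with a 48-hour exposure period. GI50: concentration for 50% inhibition of growth. TGI denotes the concentration required for complete inhibition of growth.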
How the values were obtained:
Experiment in all cases: inhibition of tumour cell growth, NCI panel, 48 h
NCI/ADR-RES ovarian = tested on: NCI/ADR-RES ovarian
KM12 colon = tested on: KM12 colon
BT-549 breast = tested on: BT-549 breast
T-47D breast = tested on: T-47D breast
HS 578T breast = tested on: HS 578T breast
DU-145 prostate = tested on: DU-145 prostate
786-0 renal = tested on: 786-0 renal
XF 498 CNS = tested on: XF 498 CNS
DMS 114 small cell lung = tested on: DMS 114 small cell lung
KM20L2 colon = tested on: KM20L2 colon
LXFL 529 NSCLC = tested on: LXFL 529 NSCLC

SMILES	TGI (NCI/ADR-RES ovarian) [µM]	TGI (KM12 colon) [µM]	TGI (BT-549 breast) [µM]	TGI (T-47D breast) [µM]	TGI (HS 578T breast) [µM]	TGI (DU-145 prostate) [µM]	TGI (XF 498 CNS) [µM]	TGI (DMS 114 small cell lung) [µM]	TGI (KM20L2 colon) [µM]	TGI (LXFL 529 NSCLC) [µM]	also measured
CC(=S)NC1C(Oc2ccc3c(C)cc(=O)oc3c2)OC(CO)C(O)C1O (stereo not given)	> 100	> 100	> 100	> 100	> 100	> 100	–	–	–	–	–
COc1cccc(C(=O)C(O)c2cccc(OC)c2OC)c1OC (stereo not given)	> 100	> 100	> 100	> 100	> 100	> 100	–	–	–	–	TGI (786-0 renal): > 100 µM
COc1nc(NC2OCC(OC(C)=O)C(OC(C)=O)C2OC(C)=O)c(N=C(C)C(C)=O)c(=O)n1C (stereo not given)	–	> 100	–	–	–	–	> 100	> 100	> 100	–	–
C[Si](C)(C)C1=C2C(=O)c3ccccc3C(=O)C2=C([Si](C)(C)C)[C@@H]2CCCC[C@H]12	–	–	> 100	> 100	–	> 100	–	–	–	–	–
CCC1OC(=O)C(C)C(OC2CC(C)(O)C(O)C(C)O2)C(C)C(O)C(C)(O)CC(C)C(=O)C(C)C(O)C1C (stereo not given)	> 300	> 300	–	–	–	–	> 300	> 300	> 300	–	–
CN1C(=N\S(=O)(=O)c2ccc(Cl)cc2)/C(=N/N=P(c2ccccc2)(c2ccccc2)c2ccccc2)c2ccccc21	–	> 100	–	–	–	–	> 100	–	> 100	> 100	–
Cc1cccc2ns[s+]c12	–	> 100	–	–	–	–	–	58.1	> 100	> 100	–
O=C(Cl)c1cc([N+](=O)[O-])cc([N+](=O)[O-])c1	–	> 100	–	–	–	–	> 100	> 100	–	> 100	TGI (786-0 renal): > 100 µM
CN(C)CCCn1c2c(c3ccncc3c1=O)C(=O)c1ccccc1-2	11.6	11.5	13.1	21	14.3	10.6	–	–	–	–	GI50 (NCI/ADR-RES ovarian): 0.803 µM; GI50 (KM12 colon): 0.641 µM; GI50 (BT-549 breast): 2.09 µM; GI50 (T-47D breast): 1.67 µM; GI50 (HS 578T breast): 1.74 µM; GI50 (DU-145 prostate): 0.988 µM
CN(C)CCCN1c2ccc3ccccc3c2Sc2cccc(Cl)c21	23.4	4.28	42.7	7.17	21.7	14.8	–	–	–	–	TGI (786-0 renal): 8.84 µM
O=C(CCc1nnc2s/c(=C\c3ccc(Cl)cc3Cl)c(=O)n12)Nc1cc(Cl)c(Cl)cc1Cl	–	> 100	–	–	–	–	–	> 100	> 100	> 100	GI50 (KM12 colon): > 100 µM; GI50 (DMS 114 small cell lung): > 100 µM; GI50 (KM20L2 colon): > 100 µM; GI50 (LXFL 529 NSCLC): > 100 µM
